# Measurements as given in patent publication US9765115B2, “Inhibitors of metastasis, methods of generating such inhibitors and their therapeutic applications” (Board of Supervisors of Louisiana State University acting …, priority 2011, dated 2017).
# Assays:
# PC-3-CTR-wt cells = assay: Matrigel in vitro invasion assay; format: cell-based; conditions: for effect on CT-induced invasion / effect on basal invasion: peptide 50 μM; for effect on CT-induced invasion: CT 50 nM; for effect on basal invasion: no CT
# Procedure: Invasion experiments were conducted in Matrigel™ invasion chambers as previously described (Sabbisetti et al., 2005).
# CT increases invasiveness, and even induces an invasive phenotype in non-invasive prostate cancer cells. The role of PDZ-binding motif in CT-stimulated invasion was examined. FIG. 2C depicts CTR-C PDZ-binding motif mutation and effects on cell invasion. PC-3V, PC-3 CTRwt and PC-3 CTRΔESS cells were added to upper insert of invasion chambers with or without 50 nM CT, and cells that passed through the Matrigel™ barrier were counted after 48 h. The results are expressed as mean number of invaded cells per 400× field ±SEM (n=6; *p<0.05 (PC-3V v PC-3CTR-wt); $ p<0.05 (PC-3CTR-wt v PC-3CTRΔESS); $$-p<0.05 (PC-3CTRwt+CT v PC-3CTRΔESS+CT) (one-way ANOVA and Newman-Keul's test)). Expression of CTRwt in PC-3 cells increased invasion by 2.5-fold (FIG. 2C).
# (§1) As shown above, CTR binds to ZO-1 through PDZ interaction (i.e. PDZ ligand on C-tail of CTR binds to the PDZ domain of ZO-1). To attenuate this binding, ZO-1 was saturated with a small C-terminal peptide of CTR sequence containing the PDZ-binding motif. Since ZO-1 is an intracellular membrane protein, the interfering peptide was delivered inside the plasma membrane. It has been shown that trans-activating transcriptional activator (TAT) protein (86-mer polypeptide) from HIV-1 enters mammalian cells when added to the surrounding media (Frankel et al., 1988; Green et al., 1989). Certain small regions of such proteins (10-16-mers) called protein transduction domains (PTDs), also efficiently traverse biological membranes (Elliott et al., 1997). Therefore, a fusion peptide Pep 1 was synthesized of TAT-peptide sequences of HIV virus and CTR-C(N-[…]-C (SEQ ID NO:2), CTR-C sequence underlined). The first experiment was to see if Pep I binds to ZO-1 in reversible fashion. For this, amino acid Y in Pep I was labeled with ^125I, and the binding with ZO-1 analyzed in the presence/absence of unlabeled Pep I (1000×; 20 μM). PC-3CTR-ZO-1-MYC cells were first incubated with unlabeled Pep I or control peptide (20 μM) for 5 min. The cells were then incubated with ^125I-pep I or C for 25 min. The cells were then washed in IP buffer, treated with DSP, and lysed. ZO-1 IPs were obtained, fractionated on SDS-PAGE, and autoradiographed. […] Next, whether Pep I competes with CTR for ZO-1 binding was tested. For this, PC-3-CTR-wt cells were treated with CT (50 nM) and or Pep I (50 μM) for 15 min. The CTR IPs were then immunoblotted and probed for ZO-1 immunoreactivity. […] Next, the biological impact of this phenomenon was examined by testing the effect of Pep I on CTR-stimulated invasion.
# The binding of ZO-1 and CTR can be attenuated by saturating ZO-1 with a small C-terminal peptide of CTR sequence containing the PDZ ligand. Since ZO-1 is an intracellular membrane protein, the interfering peptide must penetrate plasma membrane to interact with ZO-1. As discussed above, fusion peptides of small TAT peptides (12-mer) and six (Pep I) or eight amino acids (Pep II) of C-terminal of CTR were synthesized. Control peptides were TAT peptides (12-mer) containing random amino acid sequence of equivalent size (6-mer). […] Thus, these two peptides (sequences given below) could be used therapeutically to attenuate or inhibit metastasis in cancerous cells.
# CTR-ZO-1 interaction = assay: CTR-ZO-1 co-immunoprecipitation; format: cell-based; conditions: Pep I 50 μM, with or without CT 50 nM, PC-3-CTR-wt cells
# Procedure: Serum-starved PC-31-V, PC-31-CTRwt or PC-31-CTRΔESS cells (2×10^6 per 100 mm dish) were stimulated with or without 50 nM CT for 3 min, washed, and lysed in the IP buffer as previously described (von Zastrow et al., 1994). CTR in normalized lysate proteins was immunoprecipitated with anti-FLAG EZ-view beads (Sigma Chemical Co., St. Louis, Mo.), and eluted with FLAG peptide (600 μg/ml in PBS). CTR immunoprecipitates were processed for ZO-1 immunoblotting. To control for protein loading and transfer, the blots were stripped and reprobed with immunoprecipitating antibody.
# PC-31 cells stably expressing either FLAG-CTRwt or FLAGCTRΔESS were treated with or without CT for 3 min. The analysis of FLAG-CTR IPs confirmed that only FLAG-CTRwt, but not FLAG-CTRΔESS, co-precipitated ZO-1 (FIG. 3B). […] The effect of multiple CT concentrations on CTR-ZO-1 co-precipitation was tested in PC-3 cells. […] However, co-precipitation of ZO-1 by CTRwt was strong in PC-3 cells stimulated with 10 nM CT, and was even stronger in the cells receiving 100 nM CT.
# as §1
# ZO-1 = target: T1, ZO-1 (Homo sapiens, UniProt Q07157); assay: 125I-Pep I binding to ZO-1 (ZO-1 immunoprecipitation, autoradiography)
# T1 construct: expressed in transfected cells; host or cells: PC-3CTR-ZO-1-MYC cells
# T1 sequence (Q07157 whole entry): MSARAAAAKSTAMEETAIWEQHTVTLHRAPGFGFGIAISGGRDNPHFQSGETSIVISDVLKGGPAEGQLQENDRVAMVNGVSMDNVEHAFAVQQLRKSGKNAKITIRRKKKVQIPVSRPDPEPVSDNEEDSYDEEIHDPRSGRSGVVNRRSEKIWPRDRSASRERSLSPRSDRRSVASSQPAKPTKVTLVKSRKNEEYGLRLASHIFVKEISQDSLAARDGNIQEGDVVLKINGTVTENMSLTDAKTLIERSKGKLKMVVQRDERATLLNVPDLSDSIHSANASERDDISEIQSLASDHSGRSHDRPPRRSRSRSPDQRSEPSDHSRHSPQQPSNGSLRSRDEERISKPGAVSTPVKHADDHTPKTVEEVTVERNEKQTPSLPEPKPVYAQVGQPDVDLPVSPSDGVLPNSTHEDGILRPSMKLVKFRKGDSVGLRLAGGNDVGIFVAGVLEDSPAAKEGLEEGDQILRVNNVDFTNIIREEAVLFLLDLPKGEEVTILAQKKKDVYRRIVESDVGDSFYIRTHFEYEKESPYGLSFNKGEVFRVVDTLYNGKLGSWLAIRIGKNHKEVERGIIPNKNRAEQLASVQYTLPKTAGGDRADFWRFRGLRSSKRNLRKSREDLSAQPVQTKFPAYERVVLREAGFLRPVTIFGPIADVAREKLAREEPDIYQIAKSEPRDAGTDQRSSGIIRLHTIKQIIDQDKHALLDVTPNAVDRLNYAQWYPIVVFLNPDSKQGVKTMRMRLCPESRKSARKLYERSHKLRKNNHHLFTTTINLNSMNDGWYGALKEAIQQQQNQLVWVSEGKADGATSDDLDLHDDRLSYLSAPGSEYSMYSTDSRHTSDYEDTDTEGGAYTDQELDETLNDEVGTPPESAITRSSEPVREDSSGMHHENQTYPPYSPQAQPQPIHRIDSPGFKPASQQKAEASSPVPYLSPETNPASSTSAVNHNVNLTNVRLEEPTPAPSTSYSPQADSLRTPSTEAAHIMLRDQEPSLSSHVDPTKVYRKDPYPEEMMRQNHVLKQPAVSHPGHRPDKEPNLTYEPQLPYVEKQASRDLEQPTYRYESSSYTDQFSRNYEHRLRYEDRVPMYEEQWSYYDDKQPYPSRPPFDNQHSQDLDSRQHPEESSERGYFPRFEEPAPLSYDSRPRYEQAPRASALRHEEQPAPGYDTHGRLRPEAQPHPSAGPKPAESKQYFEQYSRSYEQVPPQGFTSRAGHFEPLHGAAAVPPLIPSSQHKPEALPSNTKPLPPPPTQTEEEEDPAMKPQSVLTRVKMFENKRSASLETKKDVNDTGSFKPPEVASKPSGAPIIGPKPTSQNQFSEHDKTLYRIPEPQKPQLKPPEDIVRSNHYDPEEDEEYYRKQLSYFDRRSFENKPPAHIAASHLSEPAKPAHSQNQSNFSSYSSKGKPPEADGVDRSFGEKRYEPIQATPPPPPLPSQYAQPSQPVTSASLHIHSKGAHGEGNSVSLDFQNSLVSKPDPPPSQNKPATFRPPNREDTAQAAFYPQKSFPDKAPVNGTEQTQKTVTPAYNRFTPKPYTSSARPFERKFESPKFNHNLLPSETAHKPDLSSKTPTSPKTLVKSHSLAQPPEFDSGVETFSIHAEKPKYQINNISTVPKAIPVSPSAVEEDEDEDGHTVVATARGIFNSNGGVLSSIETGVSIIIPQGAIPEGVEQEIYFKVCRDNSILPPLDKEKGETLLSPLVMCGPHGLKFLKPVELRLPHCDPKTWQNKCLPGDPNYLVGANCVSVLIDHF
# Procedure: The cells were then treated with ^125I-TAT-pepI or TAT-C for 25 min. The cell lysates were then immunoprecipitated with Anti-ZO-1 serum, the immunoprecipitates were washed, fractionated on SDS-gel, and then immunoblotted for ZO-1 and autoradiographed.
# As shown above, CTR binds to ZO-1 through PDZ interaction (i.e. PDZ ligand on C-tail of CTR binds to the PDZ domain of ZO-1). To attenuate this binding, ZO-1 was saturated with a small C-terminal peptide of CTR sequence containing the PDZ-binding motif. Since ZO-1 is an intracellular membrane protein, the interfering peptide was delivered inside the plasma membrane. It has been shown that trans-activating transcriptional activator (TAT) protein (86-mer polypeptide) from HIV-1 enters mammalian cells when added to the surrounding media (Frankel et al., 1988; Green et al., 1989). Certain small regions of such proteins (10-16-mers) called protein transduction domains (PTDs), also efficiently traverse biological membranes (Elliott et al., 1997). Therefore, a fusion peptide Pep 1 was synthesized of TAT-peptide sequences of HIV virus and CTR-C(N-[…]-C (SEQ ID NO:2), CTR-C sequence underlined). The first experiment was to see if Pep I binds to ZO-1 in reversible fashion. For this, amino acid Y in Pep I was labeled with ^125I, and the binding with ZO-1 analyzed in the presence/absence of unlabeled Pep I (1000×; 20 μM). […]
# [1] = tested on: TCF/LEF promoter activity in PC-3 cells; assay: TCF/LEF luciferase reporter assay (pGL3-OT/pGL3-OF); format: cell-based
# Procedure: FIG. 28 depicts effect of CT on TCF/LEF promoter activity in PC-3 cells with various compounds added with CT. Cells were seeded into 6-well plates and transfected with the pGL3-OT luciferase/pRL-tK plasmids or pGL3-OF-luciferase/pRL-TK plasmids. The cells were then incubated in complete medium for 48 h, after which they were serum-starved for 16 h. The cells were then treated with CT and/or PMH compounds, and the cell lysates analyzed for luciferase activity. The results are expressed as relative light units (RLU) after normalization with Renilla luciferase activity. The experiment was repeated three separate times, and results expressed as means±S.E.M.
# Certain hydantoin-like molecules isolated from sea sponge have been identified that could inhibit prostate cell metastasis (Shah et al., 2009; Mudit et al., 2011). Disruption of junctional complex stabilizes intracellular β-catenin, leading to its translocation in the nucleus, where it can bind to its partner LEF-1 (lymphocyte enhancer binding factor-1) to transactivate target genes. The transcription of TCF/LEF genes can be quantitated by using luciferase-based reporter plasmids, pGL3-OT and pGL3-OF, the improved version of the Topflash and Fopflash vectors (Shah et al., 2009). This assay can be used to comparatively evaluate junction disrupting activity of multiple compounds in a single assay. […] The two compounds, MRM-6 and MRM-4, derivatives of PMH whose structures are shown below, were obtained from Dr. K. A. El Sayed.
# prostate tumor = conditions: Shah et al., 2009; cited from earlier work
# protein kinase A (PKA) = assay: PKA activity in cell lysates; format: cell-based; conditions: 100 nM of mPKI, 10 μM of H-89
# Procedure: The lysates of untreated and CT-treated PC-3CTRwt and PC-3CTRΔESS cells were also used to determine CT-stimulated protein kinase A (PKA) and protein kinase C (PKC) activity (PKA and PKC assay kits, Promega, Madison, Wis.). The manufacturer's instructions were followed.
# FIG. 1E depicts the effect of 50 nM CT on PKA activity in cell lysates of untreated and CT-treated PC-3 CTRwt and PC-3 CTRΔESS cells that were incubated with PKA substrate peptide and ^32P-ATP, and also treated with an activator of PKA, forskolin (FSK). FIG. 1F depicts the effect of 50 nM CT on PKC activity in lysates of untreated and CT-treated PC-3 CTRwt and PC-3 CTRΔESS cells that were incubated with PKC substrate peptide and ^32P-ATP, and also treated with an activator of PKC, phorbol 12-myristate 13-acetate (PMA).
# To test whether specific PKA inhibitors abrogate CT-induced TJ disassembly, two specific, well-characterized PKA inhibitors, mPKI and H-89, were used. PC-3CTRwt cells were treated with CT (50 nM for 30 min) in the presence of mPKI (100 nM) or H-89 (10 μM). Either of these inhibitors was added 15 min prior to the addition of CT. […] FIG. 16A depicts photo micrographs of PC3-CTRwt cells, CT-stimulated in the presence and absence of mPKI. […]
compound,measurement,setting,value
N-EQESSAAYGRKKRRQRRR-C [Pep I],relative potency as antagonist of CT-induced invasion,"PC-3-CTR-wt cells; Pep I versus Pep II, 50 μM",the more potent antagonist
same,effect on CT-induced invasion,PC-3-CTR-wt cells,significantly attenuated
same,effect on CT-induced invasion,PC-3-CTR-wt cells; listed as TAT-pepI,attenuate
same,effect on basal invasion,PC-3-CTR-wt cells,neither the control peptide nor Pep I (50 μM) significantly affected
same,effect on basal invasion,PC-3-CTR-wt cells; listed as PepI,did not significantly affect
same,effect on CTR-ZO-1 co-precipitation,CTR-ZO-1 interaction,markedly diminished
same,binding to ZO-1 (co-IP of 125I-labeled peptide),"ZO-1; PC-3CTR-ZO-1-MYC cells, 25 min",bound to ZO-1
same,binding of 125I-Pep I to ZO-1 in the presence of unlabeled Pep I,"ZO-1; unlabeled Pep I 1000×, 20 μM",almost abolished
"Nc1ccc(/C=C2\NC(=O)NC2=O)c(Cl)c1 [MRM-4, (Z)-5-(4-amino-2-chlorobenzylidene)imidazolidine-2,4-dione]",potency relative to PMH and S-PMH in blocking CTR-ZO-1 interaction-mediated TCF/LEF activity,[1],more potent
same,potency relative to PMH in inhibiting CT action,[1]; with 50 nM CT,significantly more potent than PMH
"O=C1NC(=O)/C(=C/c2ccc(/C=C3/NC(=O)NC3=O)cc2)N1 [MRM-6, (5Z,5′E)-5,5′-(1,4-phenylenebis(methan-1-yl-1-ylidene))diimidazolidine-2,4-dione]",potency relative to PMH and S-PMH in blocking CTR-ZO-1 interaction-mediated TCF/LEF activity,[1],more potent
same,potency relative to PMH in inhibiting CT action,[1]; with 50 nM CT,significantly more potent than PMH
"O=C1NC(=O)/C(=C/c2ccccc2)N1 [PMH, phenyl-methylene hydrantoin]",effect on CT-stimulated luciferase activity,[1]; with 50 nM CT,decreased it remarkably
same,"cell-cell adhesion, prostate tumor growth and metastasis",prostate tumor,enhance cell-cell adhesion and attenuate prostate tumor growth and metastasis
CCSC1=N/C(=C\c2ccccc2)C(=O)N1 [S-PMH],"cell-cell adhesion, prostate tumor growth and metastasis",prostate tumor,enhance cell-cell adhesion and attenuate prostate tumor growth and metastasis
N-IIEQESSAYGRKKRRQRRR-C [Pep II],effect on CT-induced invasion,PC-3-CTR-wt cells,significantly attenuated
same,effect on CT-induced invasion,PC-3-CTR-wt cells; listed as pepII,attenuate
same,effect on basal invasion,PC-3-CTR-wt cells,did not significantly affect
O=S(=O)(NCCNC/C=C/c1ccc(Br)cc1)c1cccc2cnccc12 [Pep H-89],effect on CT-stimulated PKA activity,protein kinase A (PKA),completely abolished
